The text below walks through data of patent US12486284B2, “Ubiquitin-specific protease inhibitor and preparation method therefor and use thereof” (CHASER THERAPEUTICS, INC., priority 2019, dated 2025).

Like-named read-outs stand apart in the source and are kept apart here. A value given as a limit tells only on which side of the number the result lay.

Experiment [1] concerns the target T1, USP28 (Homo sapiens, UniProt Q96RU2).
T1 construct: purchased R&D Systems
T1 sequence (Q96RU2 1-1077): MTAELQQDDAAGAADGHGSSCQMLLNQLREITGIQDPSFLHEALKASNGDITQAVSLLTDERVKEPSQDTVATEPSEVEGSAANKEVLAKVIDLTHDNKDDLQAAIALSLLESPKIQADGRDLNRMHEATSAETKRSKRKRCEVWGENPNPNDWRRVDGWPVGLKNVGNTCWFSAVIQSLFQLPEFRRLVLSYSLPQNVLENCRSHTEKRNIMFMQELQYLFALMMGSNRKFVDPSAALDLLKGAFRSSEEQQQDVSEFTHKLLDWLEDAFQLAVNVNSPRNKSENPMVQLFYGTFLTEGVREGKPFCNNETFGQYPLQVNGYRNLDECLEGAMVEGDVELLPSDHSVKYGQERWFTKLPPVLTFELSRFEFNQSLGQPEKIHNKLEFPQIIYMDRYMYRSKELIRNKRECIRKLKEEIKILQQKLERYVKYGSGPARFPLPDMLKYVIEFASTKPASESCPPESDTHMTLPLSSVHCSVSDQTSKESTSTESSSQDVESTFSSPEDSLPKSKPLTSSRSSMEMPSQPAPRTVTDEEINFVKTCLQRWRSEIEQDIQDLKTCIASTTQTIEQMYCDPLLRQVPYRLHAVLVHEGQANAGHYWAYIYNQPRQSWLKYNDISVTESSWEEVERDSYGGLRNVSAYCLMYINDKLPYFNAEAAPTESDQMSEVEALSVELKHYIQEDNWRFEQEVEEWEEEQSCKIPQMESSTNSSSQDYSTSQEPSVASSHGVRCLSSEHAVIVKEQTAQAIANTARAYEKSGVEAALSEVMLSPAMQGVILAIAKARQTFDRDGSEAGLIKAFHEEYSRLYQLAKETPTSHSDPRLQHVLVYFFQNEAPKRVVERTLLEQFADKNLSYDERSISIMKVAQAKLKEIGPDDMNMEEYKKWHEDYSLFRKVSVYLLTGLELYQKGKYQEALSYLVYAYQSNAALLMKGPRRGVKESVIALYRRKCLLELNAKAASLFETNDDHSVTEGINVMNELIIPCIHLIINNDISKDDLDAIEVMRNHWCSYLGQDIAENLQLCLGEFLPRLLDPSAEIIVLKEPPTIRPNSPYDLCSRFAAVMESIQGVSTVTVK
Description: USP28 activity measured using ubiquitin-rhodamine 110 method. The format is biochemical. The conditions noted are these: for IC50: purified USP28 4 nM, ubiquitin-rhodamine 110 125 nM, 30 min preincubation; for IC50(F)/IC50(E) USP28: ratio of IC50 of related 3-NH2 compound (F) to IC50 of 3-NHMe compound disclosed herein (E). The method in brief:
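Purified USP28 (4 nM final) preincubated with compounds 30 min at room temperature in Tris-HCl pH 8.0 buffer with CaCl2, BME, Prionix and Triton X-100 (DMSO ≤0.5%). Ubiquitin-rhodamine 110 added to 125 nM; fluorescence (ex 485/em 535 nm) read immediately, inhibition versus DMSO control used to calculate IC50.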

Experiment [2] deals with T2, USP25 (Homo sapiens, UniProt Q9UHP3).
T2 construct: purchased R&D Systems
T2 sequence (Q9UHP3 1-1055): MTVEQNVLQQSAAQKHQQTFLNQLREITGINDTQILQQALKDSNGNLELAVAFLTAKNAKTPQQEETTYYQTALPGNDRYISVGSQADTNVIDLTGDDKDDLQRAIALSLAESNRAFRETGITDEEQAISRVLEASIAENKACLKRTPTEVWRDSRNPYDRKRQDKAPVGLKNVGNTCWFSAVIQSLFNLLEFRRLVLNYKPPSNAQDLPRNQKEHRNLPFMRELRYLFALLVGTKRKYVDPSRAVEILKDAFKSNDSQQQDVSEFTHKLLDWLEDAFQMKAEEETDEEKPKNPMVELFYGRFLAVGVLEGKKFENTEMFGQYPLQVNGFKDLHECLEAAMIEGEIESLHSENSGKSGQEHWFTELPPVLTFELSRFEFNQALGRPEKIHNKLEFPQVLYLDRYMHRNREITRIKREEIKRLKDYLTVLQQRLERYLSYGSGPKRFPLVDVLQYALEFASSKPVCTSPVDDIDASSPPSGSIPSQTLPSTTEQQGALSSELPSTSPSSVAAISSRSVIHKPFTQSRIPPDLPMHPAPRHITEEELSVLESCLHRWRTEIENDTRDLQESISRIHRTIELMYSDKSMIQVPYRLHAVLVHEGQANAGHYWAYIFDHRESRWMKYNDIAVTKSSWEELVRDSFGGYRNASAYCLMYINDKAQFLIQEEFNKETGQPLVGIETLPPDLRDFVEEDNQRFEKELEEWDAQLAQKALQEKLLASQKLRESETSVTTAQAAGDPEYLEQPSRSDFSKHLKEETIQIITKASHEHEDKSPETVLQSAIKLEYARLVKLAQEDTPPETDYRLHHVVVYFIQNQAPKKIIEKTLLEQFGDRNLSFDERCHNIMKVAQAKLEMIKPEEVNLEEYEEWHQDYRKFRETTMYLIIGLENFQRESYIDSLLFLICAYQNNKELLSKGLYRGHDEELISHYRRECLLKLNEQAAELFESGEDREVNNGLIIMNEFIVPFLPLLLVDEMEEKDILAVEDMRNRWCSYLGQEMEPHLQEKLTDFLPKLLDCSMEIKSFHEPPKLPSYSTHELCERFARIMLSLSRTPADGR
The experiment is described as follows: USP25 activity measured using ubiquitin-rhodamine 110 method. The format is biochemical. As to conditions: for IC50: purified USP25 15 nM, ubiquitin-rhodamine 110 125 nM, 30 min preincubation; for IC50(F)/IC50(E) USP25: ratio of IC50 of related 3-NH2 compound (F) to IC50 of 3-NHMe compound disclosed herein (E). Summed up:
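Compound preincubated 30 min at room temperature with USP25 (15 nM final) in 20 mM Tris-HCl pH 8.0, 2 mM CaCl2, 3 mM BME, 0.01% Prionix, 0.01% Triton X-100, ≤0.5% DMSO. Ubiquitin-rhodamine 110 (125 nM) then added; fluorescence (ex 485/em 535 nm) read immediately. IC50 from % inhibition across concentrations.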

The mark [3] stands for this setting: read-out: Inhibitory activity against USP28 (IC50).
The mark [4] stands for this setting: read-out: Inhibitory activity against USP25 (IC50).
Where [5] appears, read: Inhibitory activity against USP28 (IC50).
The mark [6] stands for this setting: Inhibitory activity against USP25 (IC50).

For `CNc1c(C(=O)NCCc2ccc(N3C[C@H]4CC[C@@H](C3)N4)c(F)c2F)sc2nc(C)ccc12` [Compound I-46], the 50% inhibitory concentration (IC50) in experiment [1] (setting [3]) fell in the range of 100 to 1000 nM; in experiment [2] (setting [4]) it was 5000 to 10000 nM.

As for `CNc1c(C(=O)N[C@H]2COc3cc(N4CC5CCC(C4)N5)ccc3C2)sc2nc(C)ccc12` [Compound I-85], the IC50 in experiment [1] (setting [5]) and in experiment [2] (setting [6]) was below 100 nM each time. For the same compound, the “IC50(F)/IC50(E) USP28” value in experiment [1] worked out at 8.8. For the same compound, the “IC50(F)/IC50(E) USP25” value in experiment [2] is on record as above 8.

`CNc1c(C(=O)NCCc2cc(F)c(N3C[C@H]4CC[C@@H](C3)N4)c(F)c2F)sc2nc(C)ccc12` [Compound I-47]: the IC50 is below 100 nM in experiment [1] (setting [5]) and 5000 to 10000 nM in experiment [2] (setting [4]).

Regarding `CCc1nc2sc(C(=O)NCCc3ccc(N4C[C@H]5CC[C@@H](C4)N5)cc3)c(NC)c2nc1C` [Compound I-74], the IC50 in experiment [1] (setting [5]) and in experiment [2] (setting [6]) was below 100 nM in each case.

Take `CNc1c(C(=O)NCCc2ccc(N3C[C@H]4CC[C@@H](C3)N4)cc2)sc2nc(N)cc(C(F)F)c12` [Compound I-95]: the IC50 in experiment [1] (setting [5]) and in experiment [2] (setting [6]) was below 100 nM each time.

As for `CCNc1c(C(=O)NCCc2ccc(N3C[C@H]4CC[C@@H](C3)N4)cc2)sc2nc(C)ccc12` [Compound I-23], the results for the half-inhibitory concentration (IC50) in experiment [1] (setting [3]) and in experiment [2] (setting [4]) were 100 to 1000 nM and 5000 to 10000 nM, respectively.

For `CNc1c(C(=O)NCCc2ccc(N3C[C@H]4CC[C@@H](C3)N4)cc2)sc2nc(N)ccc12` [Compound I-93, N-4-(3,8-diazabicyclo[3.2.1]octan-3-yl)phenethyl-6-amino-3-methylaminothiophene[2,3-b]pyridine-2-carboxamide], the IC50 in experiment [1] (setting [3]) and in experiment [2] (setting [4]) was 100 to 1000 nM in each case.

As for `CNc1c(C(=O)NCCc2ccc(N3C[C@H]4CC[C@@H](C3)N4)cc2)sc2nc(CC(C)C)ccc12` [Compound I-14], the 50% inhibitory concentration (IC50) in experiment [1] (setting [5]) is below 100 nM; in experiment [2] (setting [4]), above 10000 nM.

For the compound `CNc1c(C(=O)NCCc2c(F)cc(N3C[C@H]4CC[C@@H](C3)N4)cc2F)sc2nc(C)ccc12` [Compound I-45], the IC50 in experiment [1] (setting [5]) was below 100 nM; in experiment [2] (setting [4]), above 10000 nM.

For the compound `CNc1c(C(=O)NCCc2c[nH]c3ccccc23)sc2nc(C)cc(C)c12` [Compound I-53], the 50% inhibitory concentration (IC50) was 100 to 1000 nM in experiment [1] (setting [3]) and above 10000 nM in experiment [2] (setting [4]).

`CNc1c(C(=O)NCCc2cc(F)c(N3C[C@H]4CC[C@@H](C3)N4)c(F)c2)sc2nc(C)ccc12` [Compound I-43]: the IC50 is below 100 nM in experiment [1] (setting [5]) and above 10000 nM in experiment [2] (setting [4]).

`CNc1c(C(=O)NCCc2ccc(N3C[C@H]4CC[C@@H](C3)N4)c(Cl)c2)sc2nc(C)cnc12` [Compound I-75]: the IC50 in experiment [1] (setting [5]) and in experiment [2] (setting [6]) was below 100 nM throughout.

On to `CCCc1ccc2c(NC)c(C(=O)NCCc3c[nH]c4ccccc34)sc2n1` [Compound I-51], for which the IC50 in experiment [1] (setting [3]) was below 100 nM; in experiment [2] (setting [4]), 1000 to 5000 nM.

Turning to `CNc1c(C(=O)N[C@H]2CCc3cc(N4CC5CCC(C4)N5)ccc3C2)sc2nc(C)ccc12` [Compound I-90], the IC50 in experiment [1] (setting [5]) is below 100 nM; in experiment [2] (setting [4]), 100 to 1000 nM. Further, the “IC50(F)/IC50(E) USP28” value in experiment [1] is 5.5. For the same compound, the “IC50(F)/IC50(E) USP25” value in experiment [2] is reported as above 6.

In the case of `CNc1c(C(=O)NC[C@@H](C)c2ccc(N3C[C@H]4CC[C@@H](C3)N4)cc2)sc2nc(C)ccc12` [Compound I-68], the IC50 in experiment [1] (setting [3]) and in experiment [2] (setting [4]) was 100 to 1000 nM each time.

As to `CNc1c(C(=O)N[C@H](C)Cc2ccc(N3C[C@H]4CC[C@@H](C3)N4)cc2)sc2nc(C)ccc12` [Compound I-64], the half-inhibitory concentration (IC50) was below 100 nM in experiment [1] (setting [5]) and 100 to 1000 nM in experiment [2] (setting [4]).

Turning to `CNc1c(C(=O)NCC(C)(C)c2ccc(N3CC4CCC(C3)N4)cc2F)sc2nc(C)ccc12` [Compound I-92], the results for the IC50 in experiment [1] (setting [3]) and in experiment [2] (setting [4]) were 1000 to 5000 nM and above 10000 nM, respectively.

On to `CCc1cnc2c(NC)c(C(=O)NCCc3ccc(N4C[C@H]5CC[C@@H](C4)N5)cc3)sc2n1` [Compound I-72], for which the values for the IC50 in experiment [1] (setting [5]) and in experiment [2] (setting [4]) were below 100 nM and 100 to 1000 nM, respectively.

Take `CNc1c(C(=O)NCCc2ccc(N3C[C@H]4CC[C@@H](C3)N4)cc2)sc2nc(C#N)ccc12` [Compound I-80]: the concentration for half-maximal inhibition (IC50) in experiment [1] (setting [3]) and in experiment [2] (setting [4]) was 1000 to 5000 nM each time.

As usually defined, the IC50 is the midpoint of a concentration-inhibition curve.
